Source: publication PMC7290497, “Tubulin Resists Degradation by Cereblon-Recruiting PROTACs” (Cells, 2020)
Entries after “also recorded” stand apart in the source; their conditions may differ. Read-outs that look alike come from different tables or passages of the source. Square brackets hold non-standard residues; d marks the D form. Peptide text beside a SMILES is read from it. * marks the point of attachment. Dolaproine = CO[C@@H]([C@@H]1CCCN1)[C@@H](C)C(=O)O; X1 = O=C1CCC(N2C(=O)c3cccc(*)c3C2=O)C(=O)N1; Dil = CC[C@H](C)[C@H](NC)[C@@H](CC(=O)O)OC; X2 = C[C@@H](N*)[C@@H](O)c1ccccc1; NMeV = CN[C@H](C(=O)O)C(C)C; 12Ado = NCCCCCCCCCCCC(=O)O

How the values were obtained:
CRBN = molecular target: T1, CRBN (Homo sapiens, UniProt Q96SW2); experiment: Competitive displacement assay for cellular CRBN engagement (rescue of dBET6-mediated BRD4BD2-eGFP degradation, mCherry reporter cells); assay type: cell-based
T1 construct: Quantitative assessment of intracellular CRBN engagement; endogenous in cells; host or cells: Flp293T-based BRD4BD2-GFP mCherry reporter cell line
Experimental: (§1) The human telomerase reverse transcriptase immortalized retinal pigment epithelium 1 (hTert-RPE1) cell line used in this study was grown at 37 °C with 5% CO2 in a humidified incubator. Cells were grown in Dulbecco’s modified medium (nutrient mixture F12, DMEM/F12) supplemented with 10% fetal bovine serum, and 1% (v:v) penicillin/streptomycin (pen/strep). The Flp293T-based BRD4BD2-GFP mCherry reporter cell line was grown in DMEM supplemented with 10% FBS. The synthesized small molecules and the parental microtubule poisons were dissolved in DMSO; 0.01% DMSO was used as vehicle control.
Supplementary Figure S3. MMAE-CRBN compounds engage CRBN in cells. Quantitative assess-ment of intracellular CRBN engagement using a BRD4BRD2-eGFP-mCherry reporter assay. CRBN engagement was assessed by monitoring rescue of dBET6-mediated degradation of BRD4BRD2-eGFP.
Cells stably expressing BRD4BRD2-eGFP and mCherry were treated with 100 nM of dBET6, a specific degrader of BRD4BRD2, and increasing concentrations of the candidate tubulin degraders. The eGFP and mCherry signals were quantified by laser scanning cytometry and the concentration of compound that rescued 50% of BRD4BRD2-eGFP fluorescence (EC50) was determined by nonlinear regression. Data from n=2 biological replicates. Error bars represent standard deviation of the mean. CPD – compound with […]
(also on this page, place not known: BRD4 BRD2-eGFP-mCherry (BJG-02-095)1 100Relative abundance 100Relative abundance 100Relative abundance) […]
Supplementary Figure S6. CA4-CRBN compounds engage CRBN in cells. Quantitative assessment of intracellular CRBN engagement using a BRD4BRD2-eGFP-mCherry reporter assay. CRBN engage-ment was assessed by monitoring rescue of dBET6-mediated degradation of BRD4BRD2-eGFP. Cells stably expressing BRD4BRD2-eGFP and mCherry were treated with 100 nM of dBET6, a specific degrad-er of BRD4BRD2, and increasing concentrations of the candidate tubulin degraders. The eGFP and […]
(also on this page, place not known: BRD4 BRD2-eGFP. (BJG-02-158)10 Relative abundance 100Relativeabundance) […]
3. Competitive displacement assay for cellular CRBN engagement
Cells stably expressing the BRD4BD2-GFP with mCherry reporter were seeded at 30-50% confluency in 384-well plates with 50 µL FluoroBrite DMEM media (Thermo Fisher Scientific A18967) containing 10% FBS per well a day before compound treatment. Compounds and 100 nM dBET6 were dispensed using a D300e Digital Dispenser (HP), normalized to 0.5% DMSO, and incubated with cells for 5 hours. The assay plate was imaged immediately using an Acumen High Content Imager (TTP Labtech) with 488 nm and 561 nm lasers in 2 µm x 1 µm grid per well format. The resulting images were analyzed using CellProfiler.
A series of image analysis steps (‘image analysis pipeline’) was constructed. First, the red and green channels were aligned and cropped to target the middle of each well (to avoid analysis of heavily clumped cells at the edges), and a background illumination function was calculated for both red and green channels of each well individually and subtracted to correct for illumination variations across the 384-well plate from various sources of error. An additional step was then applied to the green channel to suppress the analysis of large auto fluorescent artifacts and enhance the analysis of cell specific fluorescence by way of selecting for objects under a given size, 30 A.U., and with a given shape, speckles. mCherry-positive cells were then identified in the red channel filtering for objects between 8-60 pixels in diameter and using intensity to distinguish between clumped objects. The green channel was then segmented into GFP positive and negative areas and objects were labeled as GFP positive if at least 40% of it overlapped with a GFP positive area. The fraction of GFP-positive cells/mCherry-positive cells in each well was then calculated, and the green and red images were rescaled for visualization. The values for the concentrations that lead to a 50% […]

[1] = system: α-tubulin (TUBA) and β-tubulin (TUBB) in hTert-RPE1 cells; experiment: Western blot of tubulin protein levels (tubulin degradation) in whole-cell extracts; assay type: cell-based, human; conditions: for degradation of tubulin (TUBA and TUBB protein levels, Western blot): normalized to ACTB and DMSO; for tubulin degradation in time-course experiment: five hours, data not shown
Experimental: as §1
Whole-cell extracts for immunoblot analysis were prepared by cell lysis in 2× SDS sample buffer composed of 50 mM Tris-HCl pH 6.8, 2% SDS, 10% glycerol, 143 mM β-mercaptoethanol, 12.5 mM EDTA, and 0.02% bromophenol blue in water. Samples were denatured at 100 °C for 10 min and then subjected to SDS-PAGE gel electrophoresis on 1.5 mm NuPAGE Novex 4–12% Bis-Tris Protein Gels (Thermo Fisher Scientific, Waltham, MA, USA), using the Mini Trans-Blot Cell system (BioRad, Hercules, CA, USA).
(§2) The Precision Plus Protein Dual Color Standard ladder was used for all immunoblots (BioRad, USA). Primary antibodies were diluted: 1:5000 beta-actin (Cell Signaling Technologies, Danvers, MA, USA, #4970), 1:15000 GAPDH (Cell Signaling Technologies, #2118), 1:10000 alpha-tubulin (DM1alpha, Millipore, Burlington, MA, USA, #05-829), and 1:5000 beta-tubulin (Cell Signaling Technologies, # 2128). Secondary antibodies were diluted: 1:15000 goat anti-mouse DyLight 680 conjugated (Thermo Fisher Scientific, #35518), 1:15000 goat anti-rabbit DyLight 800 conjugated (Thermo Fisher Scientific, #35571). The Odyssey Infra-Red Imaging System (LI-COR, Lincoln, NE, USA) equipped with the Image Studio software was used to image and analyze immunoblots. Data plotting and statistical analysis were carried out in Microsoft Excel (Redmond, WA, USA) and R (Vienna, Austria).
As positive controls, we prepared two of the literature molecules, T007-1 and a related T138067 (Figure 2A). We modified the originally reported synthesis of T007-1, instead using 2-chloro-5-nitrobenzoyl chloride, as the reported dicyclohexyl carbodiimide (DCC) coupling with 2-chloro-5-nitrobenzoic acid led to inseparable mixtures of mono- and diacylation (See Supplementary Material for full details). We treated human retinal pigment epithelium 1 (hTert-RPE1) cells, a widely used cell model, with T007-1 and T138067 degraders at a range of concentrations from 5 nM to 10 μM. Prolonged compound treatment was expected to cause activation of the spindle assembly checkpoint and an arrest in the mitotic stage of the cell cycle, which could have an effect on tubulin levels independently of tubulin degradation. To exclude this possibility, we used contact-inhibited quiescent cells (hTert-RPE1 cells stop proliferating at high growth density). In addition, to minimize the probability that some cells escape the cell cycle arrest and continue to proliferate, we opted for a short 5 h treatment of cells with the compounds, which was previously reported to be sufficient to degrade tubulin [35]. […] Therefore, as previously reported, this series of compounds led to degradation of tubulin and a global decrease of both soluble and polymerized tubulin levels.

[2] = system: microtubule cytoskeleton in hTert-RPE1 cells; experiment: Biochemical partitioning of tubulin into soluble (S) and polymerized (P) fractions; assay type: cell-based, human; conditions: 1 μM, 5 h
Experimental: as §1
For tubulin partitioning into soluble and polymerized fractions, cells were grown in 12-well dishes at 70–80% confluence. Cells were gently washed with PBS pre-warmed to 37 °C. Soluble tubulin was extracted by incubating cells in 300 µL of tubulin extraction buffer containing 60 mM PIPES (pH 6.8), 25 mM HEPES (pH 7.2), 10 mM EGTA (pH 7–8), 2 mM MgCl2, 0.5% TritonX-100, 10 µM Paclitaxel (Sigma Aldrich, St. Louis, MO USA), and a protease inhibitor tablet (Roche, Branchburg, NJ, USA) for 2 min at room temperature. The extraction buffer with soluble protein was collected and mixed with 100 µL 4× SDS sample buffer. The remaining material containing polymerized tubulin was then collected by adding 400 µL 1× SDS sample buffer and scraping the dish. All samples were denatured at 100 °C for 10 min. Equal aliquots of samples were further concentrated two-fold by evaporation at 100 °C for 3–5 min immediately prior to SDS-PAGE gel electrophoresis.
as §2

[3] = IC50, intracellular CRBN engagement (rescue of 50% of BRD4BRD2-eGFP fluorescence), Supplementary Figures S3 and S6, 100 nM dBET6, n=2 biological replicates
[4] = hTert-RPE1 cells, 5 nM to 10 μM, 5 h

SMILES | cell permeability as judged by the cellular CRBN engagement assay (CRBN) | IC50 (CRBN; [3]) [nM] | degradation of tubulin (TUBA and TUBB protein levels, Western blot) [1, 4] | microtubule destabilization (soluble S vs polymerized P fraction of tubulin) [2] | other results
CC[C@H](C)[C@@H]([C@@H](CC(=O)N1CCC[C@H]1[C@H](OC)[C@@H](C)C(=O)N[C@H](C)[C@@H](O)c1ccccc1)OC)N(C)C(=O)[C@@H](NC(=O)[C@H](C(C)C)N(C)CCOCCOCCOCCOCCNc1cccc2c1C(=O)N(C1CCC(=O)NC1=O)C2=O)C(C)C (stereo partly shown) [Compound 1] | cell-permeable | 342 | no degradation | microtubule destabilization | IC50 (CRBN; IC50, cellular CRBN engagement, 100 nM dBET6, 5 hours): 342 nM
CC[C@H](C)[C@@H]([C@@H](CC(=O)N1CCC[C@H]1[C@H](OC)[C@@H](C)C(=O)N[C@H](C)[C@@H](O)c1ccccc1)OC)N(C)C(=O)[C@@H](NC(=O)[C@H](C(C)C)N(C)C(=O)CCCCCCCCCCCNc1cccc2c1C(=O)N(C1CCC(=O)NC1=O)C2=O)C(C)C (stereo partly shown) [Compound 3] ({X1-12Ado}-[NMeV]V[Dil][Dolaproine]-X2) | – | – | no degradation | microtubule destabilization | CRBN engagement / CRBN binding in cells (in words) (CRBN; 100 nM dBET6, 5 hours): very weak CRBN engagement; IC50 (CRBN; 100 nM dBET6, 5 hours, read-out: IC50, cellular CRBN engagement): ~10000 nM
CC[C@H](C)[C@@H]([C@@H](CC(=O)N1CCC[C@H]1[C@H](OC)[C@@H](C)C(=O)N[C@H](C)[C@@H](O)c1ccccc1)OC)N(C)C(=O)[C@@H](NC(=O)[C@H](C(C)C)N(C)CCOCCOCCOCCNc1cccc2c1C(=O)N(C1CCC(=O)NC1=O)C2=O)C(C)C (stereo partly shown) [Compound 5] | – | 467 | – | – | –
CC[C@H](C)[C@@H]([C@@H](CC(=O)N1CCC[C@H]1[C@H](OC)[C@@H](C)C(=O)N[C@H](C)[C@@H](O)c1ccccc1)OC)N(C)C(=O)[C@@H](NC(=O)[C@H](C(C)C)N(C)CCOCCOCCOCCOCCOCCNc1cccc2c1C(=O)N(C1CCC(=O)NC1=O)C2=O)C(C)C (stereo partly shown) [Compound 6] | – | 440 | – | – | –
COc1ccc(/C=C\c2cc(OC)c(OC)c(OC)c2)cc1OCCOCCOCCOCCNc1cccc2c1C(=O)N(C1CCC(=O)NC1=O)C2=O (stereo not shown) [Compound 10] | cell permeable | 1480 | – | – | –
COc1ccc(/C=C\c2cc(OC)c(OC)c(OC)c2)cc1OCCOCCOCCOCCOCCNc1cccc2c1C(=O)N(C1CCC(=O)NC1=O)C2=O (stereo not shown) [Compound 11] | cell permeable | 572 | – | – | –
COc1ccc(/C=C\c2cc(OC)c(OC)c(OC)c2)cc1OCCOCCOCCOCCOCCOCCNc1cccc2c1C(=O)N(C1CCC(=O)NC1=O)C2=O (stereo not shown) [Compound 12] | cell permeable | 655 | – | – | –
COc1ccc(/C=C\c2cc(OC)c(OC)c(OC)c2)cc1NCCOCCOCCOCCOCCNc1cccc2c1C(=O)N(C1CCC(=O)NC1=O)C2=O (stereo not shown) [Compound 13] | – | – | unsuccessful in degrading tubulin | no microtubule-destabilizing activity | CRBN engagement / CRBN binding in cells (in words) (CRBN; 100 nM dBET6, 5 hours): efficient binding to CRBN; IC50 (CRBN; Supplementary Figures S3 and S6, 100 nM dBET6, n=2 biological replicates, read-out: IC50, intracellular CRBN engagement (rescue of 50% of BRD4BRD2-eGFP fluorescence)): 3720 nM
O=C(Nc1ccnc(NCc2cccc(Oc3ccccc3)c2)c1)c1cc([N+](=O)[O-])ccc1Cl [Compound T007-1] | – | – | decrease in tubulin levels | decreased levels of both soluble (S) and polymerized (P) fractions of tubulin; also recorded: both the S and the P fraction of tubulin decrease | tubulin degradation in time-course experiment [1]: efficiently degrade tubulin; potency in decreasing tubulin levels, T007-1 compared with T138067 [1, 4]: significantly more potent
COc1ccc(NS(=O)(=O)c2c(F)c(F)c(F)c(F)c2F)cc1F [Compound T138067] | – | – | decrease in tubulin levels | both the S and the P fraction of tubulin decrease | tubulin degradation in time-course experiment [1]: efficiently degrade tubulin
